# Test results from US8236818B2, “Substituted imidazopyridine derivatives as melanocortin-4 receptor antagonists” (Santhera Pharmaceuticals (Schweiz) AG, priority 2007, dated 2012).
# Tests used:
# [1] = biological target: T1, melanocortin-4 receptor (Homo sapiens, UniProt P32245); test: Membrane binding assay (fluorescence polarization, competition with fluorescence labeled NDP-alpha-MSH); settings: read-out: hMC-4R binding assay IC50/μM
# T1 construct: expressed in transfected cells; host or cells: HEK293 cells (membrane preparations)
# T1 sequence (P32245 whole entry): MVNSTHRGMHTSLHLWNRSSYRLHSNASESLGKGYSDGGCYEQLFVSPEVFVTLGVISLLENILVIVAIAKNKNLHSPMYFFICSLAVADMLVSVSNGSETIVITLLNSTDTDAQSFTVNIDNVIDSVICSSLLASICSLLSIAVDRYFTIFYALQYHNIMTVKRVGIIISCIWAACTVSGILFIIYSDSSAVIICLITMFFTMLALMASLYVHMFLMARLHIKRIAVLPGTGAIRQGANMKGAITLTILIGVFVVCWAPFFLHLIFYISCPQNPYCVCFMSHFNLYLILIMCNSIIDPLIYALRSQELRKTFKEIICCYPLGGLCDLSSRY
# [2] = biological target: T1, melanocortin-4 receptor; test: Functional assay (cAMP fluorescence polarization, membrane based, agonistic activity); format: biochemical; settings: for Emax: 2 h, read-out: % activation functional assay; for EC50: agonistic activity, cAMP, HEK293 membrane preparations, read-out: hMC-4R functional assay EC50/μM
IC50 [1] [µM],Emax [2] [%],EC50 [2] [µM],Compound
0.1 to 1,0,–,CC(C)CCN(CCC(C)C)C(=O)c1ccc2nc(-c3ccc4c(c3)OCCO4)c(CCCN)n2c1 [Example 1]
< 0.1,0,–,CC(C)CCN(CCC(C)C)C(=O)c1ccc2nc(-c3ccc4c(c3)OCCO4)c(CCCN3CCCCC3)n2c1 [Example 2]
0.1 to 1,0,–,COc1ccc(-c2nc3ccc(C(=O)N(CCC(C)C)CCC(C)C)cn3c2CCCN)cc1 [Example 3]
0.1 to 1,0,–,CC(C)CCN(CCC(C)C)C(=O)c1ccc2nc(-c3ccc(Cl)cc3)c(CCCN)n2c1 [Example 4]
0.1 to 1,0,–,COc1ccc(-c2nc3ccc(C(=O)N(CCC(C)C)CCC(C)C)cn3c2CCCN(C)C)cc1 [Example 5]
< 0.1,0,–,COc1ccc(-c2nc3ccc(C(=O)N(CCC(C)C)CCC(C)C)cn3c2CCCN2CCCC2)cc1 [Example 6]
0.1 to 1,0,–,COc1cccc(-c2nc3ccc(C(=O)N(CCC(C)C)CCC(C)C)cn3c2CCCNC(C)C)c1 [Example 7]
< 0.1,0,–,CCN(CC)CCCc1c(-c2cccc(OC)c2)nc2ccc(C(=O)N(CCC(C)C)CCC(C)C)cn12 [Example 8]
< 0.1,0,–,COc1cccc(-c2nc3ccc(C(=O)N(CCC(C)C)CCC(C)C)cn3c2CCCN2CCCC2)c1 [Example 9]
> 1,0,–,COc1cccc(-c2nc3ccc(C(=O)N(CCC(C)C)CCC(C)C)cn3c2CCCNCC2CC2)c1 [Example 10]
< 0.1,0,–,COc1cccc(-c2nc3ccc(C(=O)N(CCC(C)C)CCC(C)C)cn3c2CCCN2CCC2)c1 [Example 11]
< 0.1,0,–,COc1cccc(-c2nc3ccc(C(=O)N(CCC(C)C)CCC(C)C)cn3c2CCCN2CCOCC2)c1 [Example 12]
> 1,0,–,COCC(C)NCCCc1c(-c2cccc(OC)c2)nc2ccc(C(=O)N(CCC(C)C)CCC(C)C)cn12 (centres unmarked) [Example 13]
< 0.1,0,–,COc1cccc(-c2nc3ccc(C(=O)N(CCC(C)C)CCC(C)C)cn3c2CCCN2CC[C@H](F)C2)c1 [Example 14]
0.1 to 1,0,–,COc1cccc(-c2nc3ccc(C(=O)N(CCC(C)C)CCC(C)C)cn3c2CCCN2CCN(C)CC2)c1 [Example 15]
< 0.1,0,–,COc1cccc(-c2nc3ccc(C(=O)N(CCC(C)C)CCC(C)C)cn3c2CCCN2CCOC[C@@H]2C)c1 [Example 16]
< 0.1,0,–,CC(C)CCN(CCC(C)C)C(=O)c1ccc2nc(-c3ccc(C#N)cc3)c(CCCN3CCCC3)n2c1 [Example 17]
0.1 to 1,0,–,CC(C)CCN(CCC(C)C)C(=O)c1ccc2nc(-c3ccc(C#N)cc3)c(CCCN(C)C)n2c1 [Example 18]
< 0.1,0,–,CC(C)CCN(CCC(C)C)C(=O)c1ccc2nc(-c3ccc(Cl)cc3)c(CCCN3CCCC3)n2c1 [Example 19]
0.1 to 1,-18,< 0.1,CC(C)CCN(CCC(C)C)C(=O)c1ccc2nc(-c3ccc(Cl)cc3)c(CCCN(C)C)n2c1 [Example 20]
< 0.1,0,–,COc1cccc(-c2nc3ccc(C(=O)N(CCC(C)C)CCC(C)C)cn3c2CCC(C)N2CCCC2)c1 (centres unmarked) [Example 21]

IC50 [1] [µM],Emax [2] [%],EC50 [2] [µM],Compound
0.1 to 1,0,–,CC(C)CCN(CCC(C)C)C(=O)c1ccc2nc(-c3ccc(Cl)cc3)c(CCCCN3CCCC3)n2c1 [Example 22]
0.1 to 1,0,–,CCN(C)CCCCc1c(-c2ccc(Cl)cc2)nc2ccc(C(=O)N(CCC(C)C)CCC(C)C)cn12 [Example 23]
> 1,0,–,CC(C)CCN(CCC(C)C)C(=O)c1ccc2nc(-c3ccc(Cl)cc3)c(CCCCN(C)C)n2c1 [Example 24]
< 0.1,0,–,CC(C)CCN(CCC(C)C)C(=O)c1ccc2nc(-c3ccc(C(N)=O)cc3)c(CCCN3CCCC3)n2c1 [Example 25]
0.1 to 1,0,–,CC(C)CCN(CCC(C)C)C(=O)c1ccc2nc(-c3ccc(C#N)cc3)c(CCN3CCCC3)n2c1 [Example 26]
> 1,0,–,CC(C)CCN(CCC(C)C)C(=O)c1ccc2nc(-c3ccc(C#N)cc3)c(CCN3CCN(C)CC3)n2c1 [Example 27]
0.1 to 1,0,–,COc1cccc(-c2nc3ccc(C(=O)N(CCC(C)C)CCC(C)C)cn3c2CCCN(C)C)c1 [Example 28]
< 0.1,0,–,CCN(C)CCCc1c(-c2cccc(OC)c2)nc2ccc(C(=O)N(CCC(C)C)CCC(C)C)cn12 [Example 29]
< 0.1,0,–,COc1cccc(-c2nc3ccc(C(=O)N(CCC(C)C)CCC(C)C)cn3c2CCCN2CCC(F)CC2)c1 [Example 30]
< 0.1,0,–,COc1cccc(-c2nc3ccc(C(=O)N(CCC(C)C)CCC(C)C)cn3c2CCCN2CCCCC2)c1 [Example 31]
0.1 to 1,0,–,COc1cccc(-c2nc3ccc(C(=O)N(CCC(C)C)CCC(C)C)cn3c2CCCN2CC[C@@H](F)C2)c1 [Example 32]
< 0.1,-22,< 0.1,COc1cccc(-c2nc3ccc(C(=O)N(CCC(C)C)CCC(C)C)cn3c2CCCN2CC[C@H](O)C2)c1 [Example 33]
< 0.1,-18,< 0.1,COc1cccc(-c2nc3ccc(C(=O)N(CCC(C)C)CCC(C)C)cn3c2CCCN2CC[C@@H](O)C2)c1 [Example 34]
< 0.1,0,–,CC(C)CCN(CCC(C)C)C(=O)c1ccc2nc(-c3ccc(S(C)(=O)=O)cc3)c(CCCN3CCCC3)n2c1 [Example 35]
> 1,0,–,COc1cccc(-c2nc3ccc(C(=O)N(CCC(C)C)CCC(C)C)cn3c2CCCN2CCNCC2)c1 [Example 36]
< 0.1,0,–,COc1cccc(-c2nc3ccc(C(=O)N(CCC(C)C)CCC(C)C)cn3c2CCCN2CC(O)C2)c1 [Example 37]
> 1,0,–,C#CCN(C)CCCc1c(-c2cccc(OC)c2)nc2ccc(C(=O)N(CCC(C)C)CCC(C)C)cn12 [Example 38]
< 0.1,0,–,CC(C)CCN(CCC(C)C)C(=O)c1ccc2nc(-c3ccc4c(c3)OCO4)c(CCCN3CCCC3)n2c1 [Example 39]
0.1 to 1,0,–,Cc1ccnc(-c2nc3ccc(C(=O)N(CCC(C)C)CCC(C)C)cn3c2CCCN2CCCC2)c1 [Example 40]
< 0.1,0,–,Cc1cccc(-c2nc3ccc(C(=O)N(CCC(C)C)CCC(C)C)cn3c2CCCN2CCCC2)n1 [Example 41]
< 0.1,0,–,CC(C)CCN(CCC(C)C)C(=O)c1ccc2nc(-c3ccc(Cl)cn3)c(CCCN3CCCC3)n2c1 [Example 42]

IC50 [1] [µM],Emax [2] [%],EC50 [2] [µM],Compound
< 0.1,0,–,CC(C)CCN(CCC(C)C)C(=O)c1ccc2nc(-c3ccc4c(c3)NC(=O)CO4)c(CCCN3CCCC3)n2c1 [Example 43]
< 0.1,0,–,CC(C)CCN(CCC(C)C)C(=O)c1ccc2nc(-c3cc(O)ccn3)c(CCCN3CCCC3)n2c1 [Example 44]
< 0.1,0,–,CC(C)CCN(CCC(C)C)C(=O)c1ccc2nc(-c3ccc4c(c3)CCC(=O)N4)c(CCCN3CCCC3)n2c1 [Example 45]
0.1 to 1,0,–,CC(C)CCN(CCC(C)C)C(=O)c1ccc2nc(-c3cc(O)ccn3)c(CCCN(C)C)n2c1 [Example 46]
< 0.1,0,–,CC(C)CCN(CCC(C)C)C(=O)c1ccc2nc(-c3ncco3)c(CCCN3CCCC3)n2c1 [Example 47]
< 0.1,0,–,Cc1nc(C)c(-c2nc3ccc(C(=O)N(CCC(C)C)CCC(C)C)cn3c2CCCN2CCCC2)o1 [Example 48]
< 0.1,0,–,CC(C)CCN(CCC(C)C)C(=O)c1ccc2nc(-c3nccs3)c(CCCN3CCCC3)n2c1 [Example 49]
0.1 to 1,-1,–,CC(C)CCN(CCC(C)C)C(=O)c1ccc2nc(-c3ccc(C(=O)O)cc3)c(CCCN3CCCC3)n2c1 [Example 50]
< 0.1,0,–,CC(C)CCN(CCC(C)C)C(=O)c1ccc2nc(-c3ccc(N(C)C)nc3)c(CCCN(C)C)n2c1 [Example 51]
0.1 to 1,0,–,CC(C)CCN(CCC(C)C)C(=O)c1ccc2nc(-c3ncco3)c(CCCN(C)C)n2c1 [Example 52]
0.1 to 1,0,–,COc1cccc(-c2nc3ccc(C(=O)N(CCC(C)C)CCC(C)C)cn3c2CC(C)CN2CCCC2)c1 (centres unmarked) [Example 54]
0.1 to 1,0,–,CC(C)CCN(CCC(C)C)C(=O)c1ccc2nc(-c3ccccn3)c(CCCN3CCCC3)n2c1 [Example 55]
< 0.1,0,–,CC(C)CCN(CCC(C)C)C(=O)c1ccc2nc(-c3ccncc3)c(CCCN3CCCC3)n2c1 [Example 56]
< 0.1,0,–,Cc1ccc(-c2nc3ccc(C(=O)N(CCC(C)C)CCC(C)C)cn3c2CCCN2CCCC2)nc1 [Example 57]
> 1,0,–,Cc1ccc(-c2nc3ccc(C(=O)N(CCC(C)C)CCC(C)C)cn3c2CCCN(C)C)nc1 [Example 58]
< 0.1,0,–,CC(C)CCN(CCC(C)C)C(=O)c1ccc2nc(-c3ccc(=O)[nH]c3)c(CCCN3CCCC3)n2c1 [Example 59]
0.1 to 1,0,–,COc1cccc(-c2nc3ccc(C(=O)N(CCC(C)C)CCC(C)C)cn3c2CCCN(C(C)C)C(C)C)c1 [Example 60]
0.1 to 1,0,–,CC(C)CCN(CCC(C)C)C(=O)c1ccc2nc(-c3nccs3)c(CCCN(C)C)n2c1 [Example 61]
0.1 to 1,0,–,CC(C)CCN(CCC(C)C)C(=O)c1ccc2nc(-c3cccc(=O)[nH]3)c(CCCN3CCCC3)n2c1 [Example 62]
